Article PMC2709368 (The Journal of Biological Chemistry, 2009)

The molecules below were run against T1, prolectin (Homo sapiens, UniProt Q6ZS10) (assay: solid-phase competition binding, […]-Man-BSA reporter). Details: competitive; immobilised extracellular domain; Ca2+-dependent site.
T1 sequence (Q6ZS10 194-378 limits assumed): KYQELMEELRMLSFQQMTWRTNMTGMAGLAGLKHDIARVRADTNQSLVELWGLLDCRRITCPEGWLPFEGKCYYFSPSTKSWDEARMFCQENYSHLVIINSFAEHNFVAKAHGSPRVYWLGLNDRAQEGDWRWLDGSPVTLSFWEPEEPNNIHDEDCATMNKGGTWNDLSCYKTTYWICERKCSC

Compound | Relative KI
C[C@@H]1OC(O)[C@@H](O)[C@H](O)[C@@H]1O (stereo partly shown) [Fuc] | 1.1 ± 0.1 relative to KI of αMe-Man
CC(=O)N[C@H]1C(O)O[C@H](CO)[C@@H](O[C@@H]2O[C@@H](C)[C@@H](O)[C@@H](O)[C@@H]2O)[C@@H]1O[C@@H]1O[C@H](CO)[C@H](O)[C@H](O)[C@H]1O (stereo partly shown) [Le^a] | 0.22 ± 0.01 relative to KI of αMe-Man
OC[C@H]1OC(O)[C@@H](O)[C@@H](O)[C@@H]1O (stereo partly shown) [Man] | 1.2 ± 0.1 relative to KI of αMe-Man

The remaining lines, values ahead:

Relative KI | Compound
1.2 ± 0.1 relative to KI of αMe-Man | CC(=O)N[C@H]1C(O)O[C@H](CO)[C@@H](O)[C@@H]1O (stereo partly shown) [GlcNAc]
0.72 ± 0.08 relative to KI of αMe-Man | CC(=O)N[C@H]1C(O)O[C@H](CO)[C@@H](O[C@@H]2O[C@H](CO)[C@H](O)[C@H](O)[C@H]2O)[C@@H]1O[C@@H]1O[C@@H](C)[C@@H](O)[C@@H](O)[C@@H]1O (stereo partly shown) [Le^x]
> 30 relative to KI of αMe-Man | CO[C@H]1O[C@H](CO)[C@H](O)[C@H](O)[C@H]1O [αMe-Gal]
3.2 ± 0.1 relative to KI of αMe-Man | CO[C@H]1O[C@H](CO)[C@@H](O)[C@H](O)[C@H]1O [αMe-Glc]
